Laboratory results published in article PMC9804781, “Identification of a Novel Pseudo‐Natural Product Type IV IDO1 Inhibitor Chemotype” (Angewandte Chemie (International Ed. in English), 2022).
Where two headings read alike, the source gives them in different places.

What was measured:
His-tagged TDO = biological target: T1, His-tagged TDO (Homo sapiens, UniProt P48775); assay: TDO Activity Assay; format: biochemical; details: 120 min at 37 °C
T1 construct: His; purchased BPS Bioscience 72035 (kit)
T1 sequence (P48775 whole entry): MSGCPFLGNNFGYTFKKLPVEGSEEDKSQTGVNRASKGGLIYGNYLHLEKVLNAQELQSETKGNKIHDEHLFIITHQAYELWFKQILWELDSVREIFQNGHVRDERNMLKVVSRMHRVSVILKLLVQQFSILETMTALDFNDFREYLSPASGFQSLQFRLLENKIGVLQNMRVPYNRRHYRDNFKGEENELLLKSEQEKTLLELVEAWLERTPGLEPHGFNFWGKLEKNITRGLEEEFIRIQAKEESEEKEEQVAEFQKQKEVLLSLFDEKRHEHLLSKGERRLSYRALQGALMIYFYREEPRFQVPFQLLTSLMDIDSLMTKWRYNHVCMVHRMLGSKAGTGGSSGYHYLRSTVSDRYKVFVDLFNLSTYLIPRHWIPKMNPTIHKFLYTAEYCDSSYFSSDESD
Protocol: Inhibition of tryptophan 2,3-dioxygenase (TDO) was tested using the Universal IDO1/IDO2/TDO Inhibitor Screening Assay Kit (cat# 72035, BPS Bioscience, US). 500 ng His-tagged TDO in TDO Assay Buffer was incubated with Reaction Solution and 50 µM Test Inhibitor (0.5% (v/v) DMSO) for 120 min at 37°C with slow shaking in the dark. Afterwards, absorbance at 321 nm was recorded on the Spark® Multimode Microplate Reader (Tecan, AT), all values were subtracted by the background and normalized to the DMSO control. […]
(v/v) component 2 in component 1) and 50 µM Test Inhibitor (0.5% (v/v) DMSO) for 90 min at 30°C with slow shaking in the dark prior to initiation of the reaction by addition of 20% (v/v) IDO2 Substrate. Samples were incubated for 120 min at 30°C with slow shaking in the dark. […]

HeLa cells = system: HeLa cells; set-up: method as in ref 9a = [9]; 9; details: ref 9a; cited from earlier work
His-tagged IDO2 = biological target: T2, His-tagged IDO2 (Homo sapiens, UniProt Q6ZQW0); assay: IDO2 Activity Assay; format: biochemical; details: 90 min + 120 min at 30 °C
T2 construct: His; purchased BPS Bioscience 72035 (kit)
T2 sequence (Q6ZQW0 1-407): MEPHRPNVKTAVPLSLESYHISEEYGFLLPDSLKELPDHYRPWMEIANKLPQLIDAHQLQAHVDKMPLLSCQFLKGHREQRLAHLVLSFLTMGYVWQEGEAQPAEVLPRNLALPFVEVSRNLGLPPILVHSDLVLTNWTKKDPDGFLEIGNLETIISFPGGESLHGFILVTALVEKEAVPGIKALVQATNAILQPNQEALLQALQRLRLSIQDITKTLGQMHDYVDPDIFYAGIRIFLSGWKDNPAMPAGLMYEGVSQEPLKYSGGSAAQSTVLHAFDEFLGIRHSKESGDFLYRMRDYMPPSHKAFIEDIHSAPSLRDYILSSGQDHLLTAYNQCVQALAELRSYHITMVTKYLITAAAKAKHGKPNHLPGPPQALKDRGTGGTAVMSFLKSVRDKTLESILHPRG
Protocol: Inhibition of indoleamine 2,3-dioxygenase 2 (IDO2) was tested using the Universal IDO1/IDO2/TDO Inhibitor Screening Assay Kit (cat# 72035, BPS Bioscience, US). 10 µg His-tagged IDO2 in IDO2 Assay Buffer was incubated with Complete IDO2 Reaction Solution (1% (v/v) component 2 in component 1) and 50 µM Test Inhibitor (0.5% (v/v) DMSO) for 90 min at 30°C with slow shaking in the dark prior to initiation of the reaction by addition of 20% (v/v) IDO2 Substrate. Samples were incubated for 120 min at 30°C with slow shaking in the dark. Afterwards, absorbance at 321 nm was recorded on the Spark® Multimode Microplate Reader (Tecan, AT), all values were subtracted by the background and normalized to the DMSO control.

[1] = system: Kyn levels in BxPC-3 cells; assay: Automated (high-throughput) Kyn assay in BxPC-3 cells (Kyn sensor); format: cell-based
Protocol: Mammalian cell lines were maintained at 37°C and 5% CO2 in a humidified atmosphere and sub-cultivated twice a week. All cell lines were tested regularly for mycoplasma contamination and were always free of mycoplasma. BxPC-3 cells (DSMZ#760) were grown in RPMI-1640 medium supplemented with 10% FBS, 2 mM L-glutamine, 1 mM sodium pyruvate, 4.5 g/L glucose, 10 mM […]
HEPES and 1.5 g/L NaHCO3. […]
High-throughput Kyn assay
Automated screening for modulators of Kyn levels in BxPC-3 cells was performed as published earlier.[2] Briefly, BxPC-3 cells (1,000 cells/well) were seeded in black 1536-well plates prior to incubation for 24 h and subsequent treatment with compounds, 380 µM L-Trp and 50 ng/mL IFN-γ for 48 h. Afterwards, trichloroacetic acid was added to a final concentration of 7% (v/v), the plates were incubated for 10 min at 37°C and centrifuged for 10 min at 1620 x g. Kyn was detected by addition of 17.5 µM Kyn sensor[14] in assay buffer (excitation: 535 nm, emission: […]

autophagy [2] = assay: Automated screen: autophagy induction under fed condition; format: cell-based; details: automated screening assay
BMP signaling = assay: Automated screen: BMP signaling; format: cell-based; details: automated screening assay
autophagy [3] = assay: Automated screen: autophagy induction in the presence of chloroquine; format: cell-based; details: automated screening assay
autophagy [4] = assay: Automated screen: autophagy inhibition in the presence of rapamycin; format: cell-based; details: automated screening assay
Kyn levels in HeLa cells = assay: Manual Kyn assay in HeLa cells (p-DMAB detection); format: cell-based; details: IFN-γ, L-Trp, compounds 48 h, p-DMAB, mean n=3 ±SD, read-out: Kyn Assay IC50
Protocol: Mammalian cell lines were maintained at 37°C and 5% CO2 in a humidified atmosphere and sub-cultivated twice a week. All cell lines were tested regularly for mycoplasma contamination and were always free of mycoplasma. BxPC-3 cells (DSMZ#760) were grown in RPMI-1640 medium supplemented with 10% FBS, 2 mM L-glutamine, 1 mM sodium pyruvate, 4.5 g/L glucose, 10 mM HEPES and 1.5 g/L NaHCO3. HeLa cells (DSMZ#57) were cultivated in DMEM supplemented with 10% FBS, 4.5 g/L glucose, 4 mM L-glutamine 1 mM sodium pyruvate, 1% non-essential amino acids, 3.7 g/L NaHCO3. SKOV-3 cells (ATCC#HTB-77) were maintained in modified McCoy’s 5A medium supplemented with 10% FBS, 1.5 mM L-glutamine and 2.2 g/L NaHCO3. […]
For manual testing, BxPC-3, HeLa or SKOV-3 cells (20,000 cells/well, 5,000 cells/well or 6,250 cells/well, respectively) were seeded in 96-well plates (BxPC-3 and HeLa) or 384-well plates (SKOV-3) in medium without phenol red. After 24 h, the IDO1 pathway was induced by addition of 50 ng/mL (BxPC-3 and HeLa) or 17.6 ng/mL IFN-γ (SKOV-3) and 380 µM (BxPC-3), 164.15 µM (HeLa) or 450 µM L-Trp (SKOV-3) with simultaneous treatment with the compounds at the indicated concentrations followed by incubation for 48 h. For the hemin competition assay, hemin was added together with IFN-γ, L-Trp and the compounds. Subsequently, trichloroacetic acid was added to a final concentration of 7% (v/v), the plates were incubated for 15 min at room […]
temperature and centrifuged for 10 min at 1800 x g. Afterwards, an equal volume of freshly prepared 2% (w/v) p-DMAB in glacial acetic acid (Ehrlich reagent) was added prior to measuring the absorbance at 492 nm and 650 nm on the Spark® Multimode Microplate Reader (Tecan, AT).
To determine the Kyn levels, the absorbance of the Kyn-p-DMAB adduct A492 was subtracted by the background absorbance A650 and normalized to the DMSO control. Data analysis was performed using a non-linear regression curve fit and GraphPad Prism 9.0 (GraphPad Software, Inc, US) to generate dose-response curves and obtain IC50 values. […]
Subsequently, 10 mM ascorbic acid, 10 μM methylene blue, 2 mM L-Trp and 100 μg/mL catalase were added and samples were incubated for 60 min at room temperature or 37°C. […]

hedgehog signaling = assay: Automated screen: hedgehog signaling; format: cell-based; details: automated screening assay
glucose uptake = assay: Automated screen: glucose uptake; format: cell-based; details: automated screening assay
Wnt signaling = assay: Automated screen: Wnt signaling; format: cell-based; details: automated screening assay
alkaline phosphatase = assay: Automated screen: alkaline phosphatase; details: automated screening assay
purified IDO1 = system: purified IDO1; set-up: method as in ref 36b = [36]; 36; details: ref 36b; cited from earlier work

For `C[C@@H](C(=O)Nc1ccc(Cl)cc1)C1CCC(c2ccnc3ccc(F)cc23)CC1` (stereo partly shown) [BMS-986205], the “inhibition of TDO (result in words)” value (His-tagged TDO; 50 µM) is listed as “did not inhibit”, the IC50 (HeLa cells) is listed as 4.2 nM and the “inhibition of IDO2 (result in words)” value (His-tagged IDO2; 50 µM) is listed as “did not inhibit”.
In the case of `CCOC(=O)C1=CC[C@](C(=O)OC)(c2cc3ccccc3n2C)N(S(=O)(=O)c2ccccc2[N+](=O)[O-])[C@@H]1C(=O)OC(C)(C)C` [Compound 3b], the “effect on cellular kynurenine (Kyn) levels” value ([1]; BxPC-3 cells stimulated with IFN-γ) is reported as “selectively decreased”, the “kynurenine levels, IC50/EC50” value ([1]; automated screening assay) is reported as 630 ± 320 nM and the “kynurenine levels, inhibition” value ([1]; automated screening assay) is reported as 94.0 ± 1%. For the same compound, the “autophagy induction under fed condition, IC50/EC50” value (autophagy [2]) was “inactive”, the “autophagy induction under fed condition, inhibition” value (autophagy [2]) was 0.33 ± 0.47% and the “BMP signaling, inhibition” value (BMP signaling) was 37%. For the same compound, the “autophagy induction in the presence of chloroquine, IC50/EC50” value (autophagy [3]) was “inactive”, the “autophagy induction in the presence of chloroquine, inhibition” value (autophagy [3]) was -3.67 ± 0.94% and the “autophagy inhibition in the presence of rapamycin, inhibition” value (autophagy [4]) was 10.50 ± 9.50%. It also gave an IC50 (Kyn levels in HeLa cells; listed as 3b^a) of 2440 ± 560 nM, an IC50 (Kyn levels in HeLa cells; listed as 3b^b) of 660 ± 50 nM and an IC50 (Kyn levels in HeLa cells) of 490 ± 100 nM. The “hedgehog signaling, IC50/EC50” value (hedgehog signaling) was 6330 ± 690 nM, the “hedgehog signaling, inhibition” value (hedgehog signaling) was 73.0 ± 10.0% and the “glucose uptake, inhibition” value (glucose uptake) was 17%. The “Wnt signaling, inhibition” value (Wnt signaling) was 45.33 ± 1.89% and the “alkaline phosphatase, IC50/EC50” value (alkaline phosphatase) was “inactive”.
In the case of `NS(=O)(=O)NCCNc1nonc1C(=NO)Nc1ccc(F)c(Br)c1` [epacadostat], the “reduction of TDO activity” value (His-tagged TDO; 50 μM, n=3) is listed as 75.5±4.3%, the “reduction of IDO2 activity” value (His-tagged IDO2; 50 μM, n=3) is listed as 49.9±0.3% and the IC50 (purified IDO1) is listed as 73 nM. For the same compound, the “selectivity over IDO2” value (purified IDO1) was > 1000 fold and the “selectivity over TDO” value (purified IDO1) was > 1000 fold.
